SMILES strings stand for the structures. pIC50: −log10 of the molar value.

In the test the target is T1, recombinant human VEGF-R2 (Homo sapiens, UniProt P35968).
T1 construct: purchased Cell signaling technology #7787
T1 sequence (P35968 20-1356): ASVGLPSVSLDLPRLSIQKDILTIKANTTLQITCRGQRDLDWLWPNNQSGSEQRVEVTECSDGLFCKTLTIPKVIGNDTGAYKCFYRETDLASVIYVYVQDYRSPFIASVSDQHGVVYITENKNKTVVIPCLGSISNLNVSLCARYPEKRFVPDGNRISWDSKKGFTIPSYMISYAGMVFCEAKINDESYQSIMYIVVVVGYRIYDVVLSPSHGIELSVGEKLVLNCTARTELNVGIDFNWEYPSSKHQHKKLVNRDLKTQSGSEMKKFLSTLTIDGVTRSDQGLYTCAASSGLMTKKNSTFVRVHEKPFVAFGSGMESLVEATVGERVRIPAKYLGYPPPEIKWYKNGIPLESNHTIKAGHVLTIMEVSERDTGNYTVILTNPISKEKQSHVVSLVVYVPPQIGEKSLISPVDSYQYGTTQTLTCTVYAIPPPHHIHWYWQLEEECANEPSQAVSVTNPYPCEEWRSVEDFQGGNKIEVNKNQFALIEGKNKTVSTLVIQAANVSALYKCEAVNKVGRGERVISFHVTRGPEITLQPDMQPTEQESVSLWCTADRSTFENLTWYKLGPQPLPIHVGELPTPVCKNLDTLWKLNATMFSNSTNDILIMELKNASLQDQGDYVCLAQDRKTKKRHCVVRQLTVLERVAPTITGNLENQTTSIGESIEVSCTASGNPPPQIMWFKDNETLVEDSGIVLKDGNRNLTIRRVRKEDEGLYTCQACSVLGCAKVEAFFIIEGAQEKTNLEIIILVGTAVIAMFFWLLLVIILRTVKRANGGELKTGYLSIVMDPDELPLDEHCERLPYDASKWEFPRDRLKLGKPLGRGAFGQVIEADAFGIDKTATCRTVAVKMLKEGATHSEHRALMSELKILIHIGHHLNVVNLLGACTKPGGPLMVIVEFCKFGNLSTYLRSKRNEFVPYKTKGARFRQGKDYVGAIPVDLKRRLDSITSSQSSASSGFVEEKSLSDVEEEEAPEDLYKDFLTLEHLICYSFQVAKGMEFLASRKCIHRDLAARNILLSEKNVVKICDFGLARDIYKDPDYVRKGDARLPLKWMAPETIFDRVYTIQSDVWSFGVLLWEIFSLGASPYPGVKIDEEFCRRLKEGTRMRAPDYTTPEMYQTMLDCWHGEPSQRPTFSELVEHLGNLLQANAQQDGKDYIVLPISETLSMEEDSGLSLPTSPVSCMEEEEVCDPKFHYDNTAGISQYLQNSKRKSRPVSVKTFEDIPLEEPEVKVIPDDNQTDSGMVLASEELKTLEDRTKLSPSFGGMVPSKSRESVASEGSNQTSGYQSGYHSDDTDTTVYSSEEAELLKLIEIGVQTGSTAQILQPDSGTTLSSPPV
Put plainly: VEGF-R2 Kinase Assay (ELISA). It is filed as biochemical. The note with it: 10 μM ATP, 25° C. 30 minutes, read-out: IC50 (VEGFR/bio). The procedure:
This assay is used to measure the in vitro kinase activity of recombinant human VEGF-R2 in an ELISA assay.
c. Stop Buffer: 50 mM EDTA, pH 8.0.
d. DELFIA® Europium-labeled Anti-mouse IgG (PerkinElmer Life Sciences #AD0124).
f. DELFIA® Streptavidin coated, 96-well, yellow plate (PerkinElmer Life Sciences #AAAND-0005).
k. HTScan™ Tyrosine Kinase Buffer (4×)
The following protocol was used:
1. Dilute test compound with DMSO to the desired final assay concentration.
2. Dilute 6 μM substrate peptide (Tyr87) 1:1 with dH2O, add 15 μl to every assay.
3. Immediately transfer VEGF-R2 enzyme from −80° C. to ice. Allow enzyme to thaw on ice.
4. Take 2.2 μg VEGF-R2 enzyme to the enzyme tube.
6. Transfer 0.75 ml of DTT/Kinase buffer to each enzyme tube to make 4× reaction cocktail. Add 7.5 μl 4× reaction cocktail to every assay.
7. Add 2 μl ATP (10 mM) to 498 μl dH2O, take 7.5 μl for every assay. Final Assay Conditions for a 30 μl Reaction
Incubate reaction tube at 25° C. for 30 minutes. 9. Add 30 μl/assay stop buffer (50 mM EDTA, pH 8.0) to stop the reaction. 10. Transfer 25 μl of each reaction and 75 μl dH2O/well to a 96-well streptavidin coated plate and incubate, with shaking at room temperature for 60 minutes. 11. Wash three times with 200 μl/well PBS-T buffer. Pat plate on paper towel to remove excess liquid. 12. […] Add 100 μl diluted primary antibody to each well. 13. Incubate, with shaking at room temperature for 60 minutes. 14. Wash as described above in step 11. 15. Dilute Europium labeled anti-mouse IgG 1:500 in PBS-T buffer with 1% BSA. Add 100 μl diluted antibody to each well. 16. Incubate, with shaking at room temperature for 30 minutes. 17. Wash five times with 200 μl/well PBS-T buffer. Pat plate on paper towel to remove excess liquid. 18. Add 100 μl/well DELFIA® Enhancement Solution. 19. Incubate, with shaking at room temperature for 5 minutes. 20. Detect 615 nm fluorescence emission with appropriate Time-Resolved Plate Reader.
X=the fluorescence value of the well contained test compound
The IC50 value can be derived from the IRs of compounds at different concentration gradients.
A general note: An ELISA detects its analyte on a solid surface through an enzyme-linked reagent.
Consider `CCN(CC)CCN1CCc2[nH]c(/C=C3\C(=O)Nc4cccc(Br)c43)c(C)c2C1=O` [Example 30, 2-(4-Bromo-2-oxo-1,2-dihydro-indol-3-ylidenemethyl)-5-(2-diethylamino-ethyl)-3-methyl-1,5,6,7-tetrahydro-pyrrolo[3,2-c]pyridin-4-one], for which the pIC50 was 7.03.

Consider `Cc1c(/C=C2\C(=O)Nc3ccc(Br)cc32)[nH]c2c1C(=O)N(CCN1CCCC1)CC2` [Example 40, 2-(5-Bromo-2-oxo-1,2-dihydro-indol-3-ylidenemethyl)-3-methyl-5-(2-pyrrolidin-1-yl-ethyl)-1,5,6,7-tetrahydro-pyrrolo[3,2-c]pyridin-4-one], for which the pIC50 was 7.33.

Regarding `Cc1c(/C=C2\C(=O)Nc3cccc(C4CCNCC4)c32)[nH]c2c1C(=O)N(CCN1CCOCC1)CC2` [Example 52, 3-Methyl-5-(2-morpholin-4-yl-ethyl)-2-(2-oxo-4-piperidin-4-yl-1,2-dihydro-indol-3-ylidenemethyl)-1,5,6,7-tetrahydro-pyrrolo[3,2-c]pyridin-4-one], the pIC50 is 5.90.

As for `CCN(CC)CCN1CCc2[nH]c(/C=C3\C(=O)Nc4cccc(-c5cccc(Cl)c5F)c43)c(C)c2C1=O` [Example 36, 2-[4-(3-Chloro-2-fluoro-phenyl)-2-oxo-1,2-dihydro-indol-3-ylidenemethyl]-5-(2-diethylamino-ethyl)-3-methyl-1,5,6,7-tetrahydro-pyrrolo[3,2-c]pyridin-4-one], the pIC50 was 8.00.

Take `CCN(CC)CCN1CCc2[nH]c(/C=C3\C(=O)Nc4cccc(CCO)c43)c(C)c2C1=O` [Example 37, 5-(2-Diethylamino-ethyl)-2-[4-(2-hydroxy-ethyl)-2-oxo-1,2-dihydro-indol-3-ylidenemethyl]-3-methyl-1,5,6,7-tetrahydro-pyrrolo[3,2-c]pyridin-4-one]: the pIC50 was 7.15.

On to `CCN(CC)CCN1CCc2[nH]c(/C=C3\C(=O)Nc4ncnc(Nc5ccc(F)c(Cl)c5)c43)c(C)c2C1=O` [Example 12, 4-(3-Chlor O-4-fluoro-phenylamino)-5-[5-(2-diethylamino-ethyl)-3-methyl-4-oxo-4,5,6,7-tetrahydro-1H-pyrrolo[3,2-c]pyridine-2-ylmethylene]-5,7-dihydro-pyrrolo[2,3-d]pyrimidin-6-one], for which the pIC50 is 5.72.

With `CCN(CC)CCN1CCc2[nH]c(/C=C3\C(=O)Nc4cccc(-c5cccc(F)c5F)c43)c(C)c2C1=O` [Example 39, 5-(2-diethylamino-ethyl)-2-[4-(2,3-difluoro-phenyl)-2-oxo-1,2-dihydro-indol-3-ylidenemethyl]-3-methyl-1,5,6,7-tetrahydro-pyrrolo[3,2-c]pyridin-4-one], the pIC50 was 8.15.

Consider `CCN(CC)CCN1CCc2[nH]c(/C=C3\C(=O)Nc4cccc(-c5ccc(Cl)cc5F)c43)c(C)c2C1=O` [Example 34, 2-[4-(4-Chloro-2-fluoro-phenyl)-2-oxo-1,2-dihydro-indol-3-ylidenemethyl]-5-(2-diethylamino-ethyl)-3-methyl-1,5,6,7-tetrahydro-pyrrolo[3,2-c]pyridin-4-one], for which the pIC50 is 7.96.

For the compound `Cc1c(/C=C2\C(=O)Nc3ncnc(Nc4ccc(F)c(Cl)c4)c32)[nH]c2c1C(=O)N(CCN1CCOCC1)CC2` [Example 24, 4-(3-Chloro-4-fluoro-phenylamino)-5-[3-methyl-5-(2-morpholin-4-yl-ethyl)-4-oxo-4,5,6,7-tetrahydro-1H-pyrrolo[3,2-c]pyridine-2-ylmethylenene]-5,7-dihydro-pyrrolo[2,3-d]pyrimidin-6-one], the pIC50 was 6.17.

On to `CCN(CC)CCN1CCc2[nH]c(/C=C3\C(=O)Nc4cccc(C5CCNCC5)c43)c(C)c2C1=O` [Example 31, 5-(2-Diethylamino-ethyl)-3-methyl-2-(2-oxo-4-piperidin-4-yl-1,2-dihydro-indol-3-ylidenemethyl)-1,5,6,7-tetrahydro-pyrrolo[3,2-c]pyridin-4-one], for which the pIC50 is 7.46.

On to `Cc1c(/C=C2\C(=O)Nc3ccc(Cl)cc32)[nH]c2c1C(=O)N(CCN1CCOCC1)CC2` [Example 16, 2-(5-Chloro-2-oxo-1,2-dihydro-indol-3-ylidenemethyl)-3-methyl-5-(2-morpholin-4-yl-ethyl)-1,5,6,7-tetrahydro-pyrrolo[3,2-c]pyridin-4-one], for which the pIC50 is 7.36.

(Values after patent US8697692B2, “Pyrrolo [3,2-c] pyridine-4-one 2-indolinone protein kinase inhibitors” (Shanghai Hengrui Pharmaceutical Co., Ltd., priority 2006, dated 2014).)
